Experimental data: ChEMBL document CHEMBL3734713, “4-Thiazolidinone derivatives as potent antimicrobial agents: microwave-assisted synthesis, biological evaluation and docking studies” (2015)
Values after ≈ are worked out from the molar mass of the structure shown.

How the values were obtained:
Bacillus cereus = assay: Antibacterial activity against clinical isolates of Bacillus cereus assessed as growth inhibition after 24 hrs at 37 degC by iodonitrotetrazolium chloride staining based microdilution broth assay; type: functional
Micrococcus flavus = assay: Antibacterial activity against Micrococcus flavus ATCC 10240 assessed as growth inhibition after 24 hrs at 37 degC by iodonitrotetrazolium chloride staining based microdilution broth assay; type: functional; settings: ATCC 10240, 24 h
Staphylococcus aureus = assay: Antibacterial activity against Staphylococcus aureus ATCC 6538 assessed as growth inhibition after 24 hrs at 37 degC by iodonitrotetrazolium chloride staining based microdilution broth assay; type: functional; settings: ATCC 6538, 24 h
Listeria monocytogenes = assay: Antibacterial activity against Listeria monocytogenes NCTC 7973 assessed as growth inhibition after 24 hrs at 37 degC by iodonitrotetrazolium chloride staining based microdilution broth assay; type: functional; settings: NCTC 7973, 24 h
Escherichia coli = assay: Antibacterial activity against Escherichia coli ATCC 35210 assessed as growth inhibition after 24 hrs at 37 degC by iodonitrotetrazolium chloride staining based microdilution broth assay; type: functional; settings: ATCC 35210, 24 h
Enterobacter cloacae = assay: Antibacterial activity against human isolate of Enterobacter cloacae assessed as growth inhibition after 24 hrs at 37 degC by iodonitrotetrazolium chloride staining based microdilution broth assay; type: functional
Pseudomonas aeruginosa = assay: Antibacterial activity against Pseudomonas aeruginosa ATCC 27853 assessed as growth inhibition after 24 hrs at 37 degC by iodonitrotetrazolium chloride staining based microdilution broth assay; type: functional; settings: ATCC 27853, 24 h
Salmonella typhimurium = assay: Antibacterial activity against Salmonella typhimurium ATCC 13311 assessed as growth inhibition after 24 hrs at 37 degC by iodonitrotetrazolium chloride staining based microdilution broth assay; type: functional, Salmonella enterica subsp. enterica serovar Typhimurium; settings: Salmonella enterica, ATCC 13311, 24 h
Aspergillus fumigatus = assay: Antifungal activity against Aspergillus fumigatus ATCC 1022 assessed as growth inhibition after 72 hrs at 28 degC by serial dilution method; type: functional; settings: for MIC: Aspergillus fumigatus, ATCC 1022, 72 h
Aspergillus versicolor = assay: Antifungal activity against Aspergillus versicolor ATCC 11730 assessed as growth inhibition after 72 hrs at 28 degC by serial dilution method; type: functional; settings: for MIC: Aspergillus versicolor, ATCC 11730, 72 h
Aspergillus ochraceus = assay: Antifungal activity against Aspergillus ochraceus ATCC 12066 assessed as growth inhibition after 72 hrs at 28 degC by serial dilution method; type: functional; settings: for MIC: Aspergillus ochraceus, ATCC 12066, 72 h
Aspergillus niger = assay: Antifungal activity against Aspergillus niger ATCC 6275 assessed as growth inhibition after 72 hrs at 28 degC by serial dilution method; type: functional; settings: for MIC: Aspergillus niger, ATCC 6275, 72 h
Trichoderma viride = assay: Antifungal activity against Trichoderma viride IAM 5061 assessed as growth inhibition after 72 hrs at 28 degC by serial dilution method; type: functional; settings: for MIC: Trichoderma viride, IAM 5061, 72 h
Talaromyces funiculosus = assay: Antifungal activity against Penicillium funiculosum ATCC 36839 assessed as growth inhibition after 72 hrs at 28 degC by serial dilution method; type: functional; settings: for MIC: Talaromyces funiculosus, ATCC 36839, 72 h
Penicillium ochrochloron = assay: Antifungal activity against Penicillium ochrochloron ATCC 9112 assessed as growth inhibition after 72 hrs at 28 degC by serial dilution method; type: functional; settings: for MIC: Penicillium ochrochloron, ATCC 9112, 72 h
Candida albicans = assay: Antifungal activity against Candida albicans ATCC 10231 assessed as growth inhibition after 72 hrs at 28 degC by serial dilution method; type: functional; settings: for MIC: Candida albicans, ATCC 10231, 72 h
[1] = biological target: Human immunodeficiency virus type 1 reverse transcriptase (Human immunodeficiency virus 1) (UniProt Q72547); assay: Inhibition of HIV1 reverse transcriptase assessed as residual enzyme activity by measuring reduction in [3H]dTTP incorporation into poly(rA)-oligo(dT) at 4 uM incubated for 15 mins by scintillation counting method relative to control

Row | MIC (Bacillus cereus) | MIC (Micrococcus flavus) | MIC (Staphylococcus aureus) | MIC (Listeria monocytogenes) | MIC (Escherichia coli) | MIC (Enterobacter cloacae) | MIC (Pseudomonas aeruginosa) | MIC (Salmonella typhimurium) | Compound | MBC (Bacillus cereus) | MBC (Micrococcus flavus) | MBC (Staphylococcus aureus) | MBC (Listeria monocytogenes) | MBC (Escherichia coli) | MBC (Enterobacter cloacae) | MBC (Pseudomonas aeruginosa) | MBC (Salmonella typhimurium) | MFC99.5 (Aspergillus fumigatus) | MIC (Aspergillus fumigatus) | MFC99.5 (Aspergillus versicolor) | MIC (Aspergillus versicolor) | also measured
1 | 43 µM (≈ 25 µg/mL) | 86 µM (≈ 50 µg/mL) | 172 µM (≈ 100 µg/mL) | 258 µM (≈ 150 µg/mL) | 172 µM (≈ 100 µg/mL) | 43 µM (≈ 25 µg/mL) | 272 µM (≈ 158 µg/mL) | 172 µM (≈ 100 µg/mL) | CN[C@@H]1[C@H](O[C@H]2[C@H](O[C@H]3[C@H](O)[C@@H](O)[C@H](N=C(N)N)[C@@H](O)[C@@H]3N=C(N)N)O[C@@H](C)[C@]2(O)C=O)O[C@@H](CO)[C@H](O)[C@H]1O [STREPTOMYCIN] | 86 µM (≈ 50 µg/mL) | 172 µM (≈ 100 µg/mL) | 344 µM (≈ 200 µg/mL) | 516 µM (≈ 300 µg/mL) | 344 µM (≈ 200 µg/mL) | 86 µM (≈ 50 µg/mL) | 344 µM (≈ 200 µg/mL) | 344 µM (≈ 200 µg/mL) | – | – | – | – | –
2 | – | – | – | – | – | – | – | – | c1ccc(-c2ccc(C(c3ccccc3)n3ccnc3)cc2)cc1 (stereo unspecified) [BIFONAZOLE] | – | – | – | – | – | – | – | – | 64 ×10⁻² umol/ml | 480 µM (≈ 149 µg/mL) | 64 ×10⁻² umol/ml | 320 µM (≈ 99.3 µg/mL) | MFC99.5 (Aspergillus ochraceus): 80 ×10⁻² umol/ml; MIC (Aspergillus ochraceus): 480 µM (≈ 149 µg/mL); MFC99.5 (Aspergillus niger): 64 ×10⁻² umol/ml; MIC (Aspergillus niger): 480 µM (≈ 149 µg/mL); MFC99.5 (Trichoderma viride): 80 ×10⁻² umol/ml; MIC (Trichoderma viride): 640 µM (≈ 199 µg/mL); MFC99.5 (Talaromyces funiculosus): 80 ×10⁻² umol/ml; MIC (Talaromyces funiculosus): 640 µM (≈ 199 µg/mL); MFC99.5 (Penicillium ochrochloron): 64 ×10⁻² umol/ml; MIC (Penicillium ochrochloron): 480 µM (≈ 149 µg/mL); MFC99.5 (Candida albicans): 48 ×10⁻² umol/ml; MIC (Candida albicans): 320 µM (≈ 99.3 µg/mL)
3 | 248 µM (≈ 86.7 µg/mL) | 248 µM (≈ 86.7 µg/mL) | 248 µM (≈ 86.7 µg/mL) | 372 µM (≈ 130 µg/mL) | 372 µM (≈ 130 µg/mL) | 248 µM (≈ 86.6 µg/mL) | 744 µM (≈ 260 µg/mL) | 248 µM (≈ 86.7 µg/mL) | CC1(C)S[C@@H]2[C@H](NC(=O)[C@H](N)c3ccccc3)C(=O)N2[C@H]1C(=O)O [AMPICILLIN] | 372 µM (≈ 130 µg/mL) | 372 µM (≈ 130 µg/mL) | 378 µM (≈ 132 µg/mL) | 744 µM (≈ 260 µg/mL) | 492 µM (≈ 172 µg/mL) | 372 µM (≈ 130 µg/mL) | 1240 µM (≈ 433 µg/mL) | 492 µM (≈ 172 µg/mL) | – | – | – | – | –
4 | 30.6 µM (≈ 14.2 µg/mL) | 30.6 µM (≈ 14.2 µg/mL) | 9 µM (≈ 4.19 µg/mL) | 62.5 µM (≈ 29.1 µg/mL) | 62.5 µM (≈ 29.1 µg/mL) | 30.6 µM (≈ 14.2 µg/mL) | 15.3 µM (≈ 7.12 µg/mL) | 15.3 µM (≈ 7.12 µg/mL) | O=C1CSC(c2cccc(Cl)c2Cl)N1c1nc(C23CC4CC(CC(C4)C2)C3)cs1 (stereo unspecified) | 62.5 µM (≈ 29.1 µg/mL) | 62.5 µM (≈ 29.1 µg/mL) | 15.3 µM (≈ 7.12 µg/mL) | 125 µM (≈ 58.2 µg/mL) | 125 µM (≈ 58.2 µg/mL) | 62.5 µM (≈ 29.1 µg/mL) | 62.5 µM (≈ 29.1 µg/mL) | 62.5 µM (≈ 29.1 µg/mL) | 0.06 ×10⁻² umol/ml | 0.42 µM (≈ 0.195 µg/mL) | 0.06 ×10⁻² umol/ml | 0.21 µM (≈ 0.0977 µg/mL) | MFC99.5 (Aspergillus ochraceus): 0.06 ×10⁻² umol/ml; MIC (Aspergillus ochraceus): 0.42 µM (≈ 0.195 µg/mL); MFC99.5 (Aspergillus niger): 0.06 ×10⁻² umol/ml; MIC (Aspergillus niger): 0.21 µM (≈ 0.0977 µg/mL); MFC99.5 (Trichoderma viride): 0.06 ×10⁻² umol/ml; MIC (Trichoderma viride): 0.21 µM (≈ 0.0977 µg/mL); MFC99.5 (Talaromyces funiculosus): 0.06 ×10⁻² umol/ml; MIC (Talaromyces funiculosus): 0.42 µM (≈ 0.195 µg/mL); MFC99.5 (Penicillium ochrochloron): 0.06 ×10⁻² umol/ml; MIC (Penicillium ochrochloron): 0.21 µM (≈ 0.0977 µg/mL); MFC99.5 (Candida albicans): 1.075 ×10⁻² umol/ml; MIC (Candida albicans): 5.3 µM (≈ 2.47 µg/mL); Activity [1]: 100%
